# Test results from patent US10676720B2, “Combinational use of mechanical manipulation and programin derivatives to increase Oct4, Sox2, Nanog or c-Myc expression in fibroblasts” (The Chinese University of Hong Kong, priority 2014, dated 2020).
# Several values for one entry are separate records, joined by “and”; a condition that tells them apart may be missing. Equal values may be shown once. Read-outs that look alike come from different tables or passages of the source.
# How the values were obtained:
# [1] = system: Oct4, Sox2 and Nanog expression in embryoid-like cell bodies of CD34+ mouse fibroblasts; assay: qPCR of pluripotent gene expression in embryoid-like bodies of mouse tail fibroblasts; type: cell-based; conditions: for Oct4, Sox2 and Nanog expression (qPCR, FIG. 5): embryoid-like cell bodies of CD34+ mouse fibroblasts; for Oct4, Sox2 and Nanog expression (qPCR, FIG. 5) / Oct4, Sox2 and Nanog expression (qPCR, FIG. 4): vs untreated bodies and monolayer; for Oct4, Sox2 and Nanog expression (qPCR, FIG. 4): embryoid-like cell bodies treated with 5 μm
# Method: Materials required: Culture medium, supplemented with 10% FBS, 1% PS in DMEM (Invitrogen); Mouse ESC medium, supplemented with 1×B27 (Invitrogen), 1,000 U/mL Mouse Leukemia Inhibitory Factor (LIF) in DMEM/F12 culture medium (Invitrogen); Programin (frozen stock dissolved in DMSO); Working concentration=1-5 μM; Sterile 35 mm non-adhesive culture dish (SPL; 11035).
# 1. Source mouse tail fibroblasts (passage 2-6 and in log phase of growth). Trypsinize the fibroblasts using standard protocols to obtain a suspension of the cells in culture medium.
# 2. Seed the fibroblasts or other somatic cells onto a sterile 35 mm non-adhesive culture dish at density of 1×10^5-1×10^6 cells/cm^2 in 3 mL of culture medium.
# 4. Gently pipette the culture media to prevent the cells from adhering to culture dish surface. Two sessions per day, 2 min for each session, must be performed. A standard 1 mL pipette and plastic tip was used for pipetting the cultures. The pipetting has to done very slowly (approximately 0.5-1 mL/second generates sufficient force to detach cells from non-adhesive culture dish surface).
# 1. The cells would start to aggregate into embryoid-like bodies after day 1. These bodies will grow in numbers and size during the period of culture.
# 2. Gently pipette the culture media to prevent the embryoid-like cell bodies from attaching on culture dish surface.
# 3. Add 1 mL of fresh culture medium.
# 1. Collect cell suspension and pellet cells by centrifugation at 800 rpm for 5 min. […] Wash cell once with mouse ESC medium and Programin (1-5 μM) or programin derivatives.
# 2. Pellet the embryoid-like bodies again and re-suspend them in 3 mL mouse ESC medium and Programin or derivatives thereof.
# 3. Seed the embryoid-like cell bodies onto a sterile 35 mm non-adhesive culture dish.
# 4. Perform daily pipetting twice in a day to prevent the embryoid-like cell bodies from sticking to the culture dish.
# 5. Add 1 mL of fresh mouse ESC medium on day 5 (day 2 post-Programin treatment).
# 2. Harvest the embryoid-like cell bodies for qPCR analysis to validate expression of pluripotent genes: Oct4, Sox2 and Nanog expression. In addition, expression of other key stem cell-associated genes.
# [2] = system: Programin treated embryoid-like cell bodies; conditions: treated embryoid-like bodies on 0.1% gelatin, B27 medium, after 3 days, more obvious after 7 days
# Source text: (§1) Programin treated embryoid-like cell bodies (1×10^6 cells/10 cm^2) were maintained as a suspension culture in DMEM/F12, 1000U/mL LIF and 1×B27 on non-adhesive culture dishes for 4 days. The embryoid-like cell bodies were then transferred to culture dishes coated with 0.1% gelatin (FIG. 10A).
# [3] = system: Oct4, Sox2, KLF4, c-Myc and Nanog expression in HUCPV cells; conditions: HUCPV cells as a monolayer, 0-5 μM for 30 hours
# [4] = system: Programin-treated embryoid-like cell bodies
# Method: as §1, with “Programin-treated” for “Programin treated”, “1000 U/mL” for “1000U/mL”, “9A). 10 μM Wnt agonist (Cat #681665, Calbiochem) was added to the culture medium (DMEM/F12, 1000U/mL LIF and 1×B27).” for “10A).”
# [5] = system: CD34+ fibroblasts grown on adhesive culture dishes; conditions: 5 μM for 3 days
# Source text: Tail fibroblasts extracted from the tail of Oct4-EGFP transgenic mice and stained with CD34 (FIG. 2). The cells were sorted by flow cytometry for only those expressing the surface marker CD34.
# [6] = system: Oct4, Nanog, Sox2, c-Myc and KLF4 expression in human skin fibroblasts; conditions: 5 μM, 4 days
# Method: Materials required: Fibroblast medium, supplemented with 15% FBS, 1% non-essential amino acids, 1% PS in Eagle's MEM medium (Invitrogen), human ESC medium, supplemented with 20% knockout serum replacement (Invitrogen), 2 mM L-glutamine, 0.1 mM non-essential amino acids, 0.1 mM mercaptoethanol, 10 ng/mL fibroblast growth factor-basic (bFGF), 1% PS in DMEM/F12 (Invitrogen), Programin or derivatives thereof (frozen stock dissolved in DMSO); Working concentration=5 μM, and sterile 35 mm non-adhesive culture dish (SPL; 11035).
# Primary human skin fibroblasts were cultured in fibroblast medium and passaged by trypsinization. Passage 5 fibroblasts were used for experimentation.
# After dissociating the cultures into single cells with trypsin, 2×10^6 cells were resuspended in 3 mL fibroblast medium in non-adhesive 35 mm dish and maintained in 37° C. incubator with 5% CO2.
# Several hours later, aggregates were formed. Gently breakup excessively large aggregates by pipetting.
# The next day, compact aggregates were formed. Again gentry breakup aggregates into smaller size (100-120 μm diameter) by pipetting.
# Three days after cell aggregate/embryoid-like cell body formation, change the medium to human ESC medium supplemented with 5 μM Programin or derivatives thereof.
# Replenish medium with fresh Programin or derivatives thereof 2 days after. […]
# [7] = system: Oct4, Sox2, KLF4, c-Myc and Nanog expression in HUCPV cells; conditions: HUCPV embryoid-like bodies
# Method: Materials required: HUCPV medium, consisting of 15% ESQ-FBS (Invitrogen) and 1% PS in MEM/F12 (Invitrogen), Essential 6 (Invitrogen) supplemented with 100 ng/mL basic fibroblast growth factor (bFGF) (Invitrogen), Programin or derivatives thereof (frozen stock dissolved in DMSO); Working concentration=1-5 μM; Sterile non-adhesive 24-well culture plate (SPL; 32024).
# Primary human umbilical cord peri-vascular (HUCPV) cells were maintained in HUCPV culture medium and passaged by trypsinization. Only HUCPV cells below cell passage 6 were used.
# HUCPV cultures are trypsinize and dissociate into single cells.
# The dissociated HUCPV cells are re-suspend as 3×10^5 cells in 600 μL of HUCPV medium and seeded into each well of a non-adhesive 24-well culture plate.
# The cells are incubated at 37° C. and 5% CO2 inside a cell incubator.
# On following day, until the end of experiment, the cells were pipetted twice a day to prevent cells attaching onto culture plates which caused the HUCPV cells to aggregate into embryoid-like cell bodies.
# 200 μL of fresh HUCPV medium were added to the cultures, every 2 days. […]
# Thirty hours after Programin treatment, the Programin treated embryoid-like cell bodies were harvested for qPCR analysis to validate expression of the pluripotent genes: Oct4, Sox2 and Nanog. Other key stem cells-associate genes were also analyzed.
# [8] = system: Oct4-EGFP expression in CD34+ fibroblasts from the tail of an Oct4-EGFP transgenic mouse; conditions: embryoid-like cell bodies, 5 μM, 24, 48 and 69 hours
# Source text: 1. Harvest the embryoid-like cell bodies for PI and Hoechst staining for confocal analysis. The presence of green fluorescence and Hoechst staining in cells indicate the presence of live PIP cells expressing Oct4-EGFP.
# CD34^+ fibroblasts harvested from the tail of an Oct4-EGFP transgenic mouse were mechanically pipetted and maintained on non-adhesive culture plates so that the cells became aggregated to form embryoid-like bodies (FIG. 3A). The embryoid-like bodies in this study were stained with PI dye to determine the presence of dead cells (red arrows) and Hoechst dye for the presence of live cells (blue arrows) (FIGS. 3A-3D).
compound,measurement,setting,value
Clc1nc(-n2cccn2)c2nc[nH]c2n1 [Derivative 958],"Oct4, Sox2 and Nanog expression (qPCR, FIG. 5)",[1],significantly increased
Nc1ncnc2nc[nH]c12 [Derivative 668],"Oct4, Sox2 and Nanog expression (qPCR, FIG. 5)",[1],significantly increased
Cc1cc(C)n(-c2nc(Cl)nc3[nH]cnc23)n1 [Derivative 959],"Oct4, Sox2 and Nanog expression (qPCR, FIG. 5)",[1],significantly increased
"c1nc2nc(Nc3ccc(N4CCOCC4)cc3)nc(NC3CCCCC3)c2[nH]1 [programin, 2-(4-Morpholinoanilino)-6-cyclohexylamino-purine]",formation of neurons,[2],Neurons were evident
same,"Oct4, Sox2, KLF4, c-Myc and Nanog expression (qPCR)",[3],did not activate
same,fate of treated cells that were not aggregated,[4]; following exposure to the Wnt agonist,underwent cell death
same,formation of bone-like nodules,"[4]; treated embryoid-like bodies on 0.1% gelatin with 10 μM Wnt agonist, after 2-3 days",Bone-like nodules were evident
same,Alizen Red s staining of the nodules,[4]; treated embryoid-like bodies with 10 μM Wnt agonist,osteocytes
same,Oct4 expression,[5],did not express Oct4
same,cell survival,[5],died
same,"increase in Oct4, Sox2 and Nanog expression","[1]; aggregates/embryoid-like bodies of fibroblasts, compared to controls (unaggregated, untreated cells)",25-200 fold and 20-200 fold
same,increase in expression of E-cadherin,[1]; compared to that of the initial fibroblast,5 fold
same,"increase in Oct4, Sox2 and Nanog expression","[1]; embryoid-like cell bodies exposed to 2-5 μM for 30 hours, compared to an untreated control fibroblast",25-200 fold
same,"Oct4, Sox2 and Nanog expression (qPCR, FIG. 5)",[1],higher
same,"Oct4, Sox2 and Nanog expression (qPCR, FIG. 4)",[1],highest
same,"Oct4, Sox2 and Nanog expression (qPCR, FIG. 4)",[1]; listed as Programin,significantly enhanced
same,reprogramming efficiency,"[1]; mouse somatic cells, takes 7 days to accomplish",approximately 20%
same,"expression of Oct4, Nanog, Sox2, c-Myc and KLF4 (qPCR)","[6]; human skin fibroblast embryoid-like bodies, vs vehicle and monolayer",higher levels
same,"expression of pluripotency-associated genes Oct4, Sox2, Nanog, KLF4 and c-Myc",[6]; human skin fibroblasts in a monolayer,not in a monolayer
same,"Oct4, Sox2, KLF4, c-Myc and Nanog expression (qPCR)","[7]; 1-5 μM for 30 hours, vs untreated embryoid-like body controls (0 μM)",significantly enhanced
same,"concentration that induced the highest level of Oct4, Sox2, Klf4 and Nanog","[7]; 30 hours, 1-5 μM tested",4 µM
same,Oct4-EGFP expression (confocal microscope),[8],detectable
same,Oct4-EGFP expression (confocal microscope),[8]; listed as Programin,expressed Oct4-EGFP
Clc1nc(N2CCN(c3ccccc3)CC2)c2[nH]cnc2n1 [Derivative 957],"Oct4, Sox2 and Nanog expression (qPCR, FIG. 5)",[1],significantly increased
Oc1ncnc2[nH]ncc12 [Derivative 237],"Oct4, Sox2 and Nanog expression (qPCR, FIG. 5)",[1],significantly increased
Nc1nc2nc[nH]c2c(=S)[nH]1 [Derivative 400],"Oct4, Sox2 and Nanog expression (qPCR, FIG. 5)",[1],significantly increased
S=c1[nH]cnc2nc[nH]c12 [Derivative 594],"Oct4, Sox2 and Nanog expression (qPCR, FIG. 5)",[1],significantly increased
